Test results taken from ChEMBL document CHEMBL1201862, “PubChem BioAssay data set” (2004).
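48-hour exposure; five concentrations; linearly interpolated endpoints. GI50: concentration for 50% inhibition of growth.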 Active and inactive are the calls of the source. Rule as the data show it: active = GI50 up to about 1.1 µM and inactive = higher.

What was measured:
Assay in all cases: inhibition of tumour cell growth, NCI panel, 48 h
SF-295 = test system: SF-295
SK-MEL-2 = test system: SK-MEL-2
TK-10 = test system: TK-10
PC-3 = test system: PC-3
COLO 205 = test system: COLO 205
NCI-H23 = test system: NCI-H23
ACHN = test system: ACHN
RXF 393 = test system: RXF 393
MDA-MB-231 = test system: MDA-MB-231
NCI-H522 = test system: NCI-H522
CCRF-CEM = test system: CCRF-CEM
LOX IMVI = test system: LOX IMVI
T47D = test system: T47D
SK-MEL-28 = test system: SK-MEL-28
SNB-75 = test system: SNB-75
786-0 = test system: 786-0
HOP-62 = test system: HOP-62
IGROV-1 = test system: IGROV-1
UACC-62 = test system: UACC-62
HL-60 = test system: HL-60

Compound	GI50 (SF-295)	GI50 (SK-MEL-2)	GI50 (TK-10)	GI50 (PC-3)	GI50 (COLO 205)	GI50 (NCI-H23)	GI50 (ACHN)	GI50 (RXF 393)	GI50 (MDA-MB-231)	GI50 (NCI-H522)	GI50 (CCRF-CEM)	GI50 (LOX IMVI)	GI50 (T47D)	GI50 (SK-MEL-28)	GI50 (SNB-75)	GI50 (786-0)	GI50 (HOP-62)	GI50 (IGROV-1)	GI50 (UACC-62)	GI50 (HL-60)
Cc1cc2[nH]c3c(C#N)c(-c4ccccc4)c(/N=N/c4ccc(F)cc4)c(=O)n3c2cc1C	> 100 µM (inactive)	> 100 µM (inactive)	> 100 µM (inactive)	> 100 µM (inactive)	> 100 µM (inactive)	> 100 µM (inactive)	> 100 µM (inactive)	> 100 µM (inactive)	> 100 µM (inactive)	18.5 µM (inactive)	> 100 µM (inactive)	> 100 µM (inactive)	4.22 µM (inactive)	> 100 µM (inactive)	36.2 µM (inactive)	31 µM (inactive)	> 100 µM (inactive)			
CC1C[C@]2(C)C(NCCN)=Nc3ccccc3[C@@H]2N(C)c2ccccc21 (stereo partly specified)	17.9 µM (inactive)	17.2 µM (inactive)	9.29 µM (inactive)	12.9 µM (inactive)	2.23 µM (inactive)	16.7 µM (inactive)	16.3 µM (inactive)	8.85 µM (inactive)	8.57 µM (inactive)		15.9 µM (inactive)	12.7 µM (inactive)	15.1 µM (inactive)	11.2 µM (inactive)	3.45 µM (inactive)	12.2 µM (inactive)	16.1 µM (inactive)	14.1 µM (inactive)	13.6 µM (inactive)	16.2 µM (inactive)
CC(=O)OC[C@H]1CN(OC(C)=O)C[C@@H](n2cc(C)c(=O)[nH]c2=O)O1	> 100 µM (inactive)	> 100 µM (inactive)	> 100 µM (inactive)	> 100 µM (inactive)	> 100 µM (inactive)		> 100 µM (inactive)	> 100 µM (inactive)	> 100 µM (inactive)				> 100 µM (inactive)	> 100 µM (inactive)	61.5 µM (inactive)	> 100 µM (inactive)	> 100 µM (inactive)	> 100 µM (inactive)	> 100 µM (inactive)	> 100 µM (inactive)
[O-][S+]1CC[S+]([O-])CC[S+]([O-])CC1 (stereo unspecified)	> 100 µM (inactive)		> 100 µM (inactive)	> 100 µM (inactive)	> 100 µM (inactive)	> 100 µM (inactive)			> 100 µM (inactive)	> 100 µM (inactive)	> 100 µM (inactive)	> 100 µM (inactive)	> 100 µM (inactive)	> 100 µM (inactive)	> 100 µM (inactive)	> 100 µM (inactive)	> 100 µM (inactive)	> 100 µM (inactive)	> 100 µM (inactive)	> 100 µM (inactive)
Cc1nc(Cl)c(CBr)c(Cl)n1	8.45 µM (inactive)	1.87 µM (inactive)	2.08 µM (inactive)	1.63 µM (inactive)	1.66 µM (inactive)	1.62 µM (inactive)	1.71 µM (inactive)	2.11 µM (inactive)	1.95 µM (inactive)	0.518 µM (active)	0.152 µM (active)	0.585 µM (active)	1.88 µM (inactive)	1.49 µM (inactive)	1 µM (active)	0.275 µM (active)	1.91 µM (inactive)	1.72 µM (inactive)	1.38 µM (inactive)	
O=C1N[C@H](C(=O)O)[C@@H](c2ccc(OCc3ccccc3)cc2)O1	26.1 µM (inactive)	26.2 µM (inactive)	27.4 µM (inactive)	> 100 µM (inactive)	> 100 µM (inactive)	40.4 µM (inactive)	36.5 µM (inactive)	12.9 µM (inactive)	23.2 µM (inactive)	37.3 µM (inactive)	> 100 µM (inactive)		26.3 µM (inactive)	> 100 µM (inactive)	10.8 µM (inactive)	16.6 µM (inactive)	13.6 µM (inactive)	20.9 µM (inactive)	67.5 µM (inactive)	
